Reference: patent US11479802B2, “Assays for screening activity of modulators of members of the hydroxy steroid (17-beta) dehydrogenase (HSD17B) family” (Regeneron Pharmaceuticals, Inc., priority 2017, dated 2022)

Target: T1, human HSD17B13 (Homo sapiens, UniProt Q7Z5P4)
T1 sequence (Q7Z5P4 20-300): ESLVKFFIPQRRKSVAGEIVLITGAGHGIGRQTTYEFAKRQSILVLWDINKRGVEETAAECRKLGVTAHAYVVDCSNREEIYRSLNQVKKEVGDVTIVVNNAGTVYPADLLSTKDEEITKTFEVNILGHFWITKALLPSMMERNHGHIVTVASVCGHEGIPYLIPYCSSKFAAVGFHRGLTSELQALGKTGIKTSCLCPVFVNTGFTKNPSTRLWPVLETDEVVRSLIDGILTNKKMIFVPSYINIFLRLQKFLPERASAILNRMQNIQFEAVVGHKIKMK
Experiment: Substrate screening of steroid and bioactive lipid libraries against purified recombinant HSD17B13 (NADH-linked luciferase assay)
Assay type: biochemical
Conditions: for HSD17B13 Enzymatic Activity Relative Light Units: 500 μM NAD+, 100 ng enzyme, 3 hours at 23° C.; for HSD17B13 Enzymatic Activity Percent Estradiol Control: normalized to 50 μM estradiol after subtraction of 5% DMSO
Experimental: To understand the functional consequences of premature truncation of the HSD17B13 protein due to rs72613567:TA (the associated variant, rs72613567, is an insertion of an adenine adjacent to the donor splice site of exon six (TA allele)), the enzymatic activity of isoforms A and D was evaluated in vitro using recombinant protein and nicotinamide […] dinucleotide as cofactor. Reactions were performed in a final volume of 40 μl of assay buffer (0.2 M Tris-HCl, pH 7.5) which contained 500 μM NAD^+, 5 μM bioactive lipid or 50 μM steroid (all in a final concentration of 5% DMSO), and 100 ng of recombinant human HSD17B13. Reactions were incubated for 3 hours, at 23° C., after which an equal volume detection reagent was added. Following a 1 hour incubation at 23° C., the relative light units (RLUs) were measured on an Envision Plate Reader (Perkin Elmer). Raw RLU values were normalized as percent of control (50 μM estradiol) following subtraction of negative control (5% DMSO) using the following formula: Percent of control (POC)=100×(Sample (RLU)−Negative CTRLaverage)/(Positive CTRLaverage−Negative CTRLaverage).

[1] = Bioactive Lipid Library, 5 μM bioactive lipid (Estradiol Control 50 μM)
[2] = Bioactive Lipid Library, 5 μM bioactive lipid

Molecule | HSD17B13 Enzymatic Activity Relative Light Units [1] [RLU] | HSD17B13 Enzymatic Activity Percent Estradiol Control [2] [%] | HSD17B13 Enzymatic Activity Relative Light Units (Steroid Library, 50 μM steroid) [RLU] | HSD17B13 Enzymatic Activity Percent Estradiol Control (Steroid Library, 50 μM steroid) [%]
CCCCC/C=C\C/C=C\C=C\[C@@H](O)CCCCCCC(=O)O [8(S)-HETrE] | 412960 | 9.38 |  | 
15-deoxy-Δ12,14-Prostaglandin J2-biotin | 252400 | −2.43 |  | 
CCCCC[C@H](O)/C=C/[C@H]1C=CC(=O)[C@@H]1CCCCCCC(=O)NCCCCCNC(=O)CCCC[C@@H]1SC[C@@H]2NC(=O)N[C@@H]21 [Prostaglandin A1-biotin] | 309320 | 2.07 |  | 
CCCCC[C@@H](/C=C/C=C\C/C=C\CCCCC(=O)O)OO [13(S)-HpOTrE(γ)] | 268840 | −1.34 |  | 
O=C(O)CCC/C=C\C/C=C\C/C=C\C/C=C\CCCCCC(=O)O [20-carboxy Arachidonic Acid] | 293760 | −2.36 |  | 
C[C@]12CCC(=O)C=C1CC[C@@H]1[C@@H]2C(=O)C[C@@]2(C)[C@H]1CC[C@]2(O)C(=O)CO [Cortisone] |  |  | 204080 | 0.76
CCCCC/C=C\C[C@H](O)/C=C/C=C/C=C\[C@@H](O)CCCC(=O)O [12-epi Leukotriene B4] | 389240 | 8.39 |  | 
CCCCC/C=C\C/C=C\C/C=C\C[C@H]1O[C@H]1CCCC(=O)NCCO (racemic) [(±)5(6)-EET Ethanolamide] | 450160 | 9.45 |  | 
CCCCC[C@H](O)/C=C/C=C\CCCCCCCC(=O)O [13(S)-HODE] | 792800 | 37.62 |  | 
CCCCC/C=C\CC(O)C(O)C/C=C\C/C=C\CCCC(=O)O (racemic) [(±)11(12)-DiHET] | 599000 | 20.69 |  | 
CCCCC[C@H]1O[C@H]1C/C=C\C/C=C\C/C=C\CCCC(=O)NCCO [14(15)-EET Ethanolamide] | 428760 | 7.83 |  | 
CC/C=C\C[C@H](O)/C=C/[C@@H]1[C@@H](C/C=C\CCCC(=O)O)[C@@H](O)C[C@H]1O [Prostaglandin F3α] | 385360 | 8.08 |  | 
CCCCC[C@H](O)/C=C/[C@H]1[C@@H](O)CC(=O)[C@@H]1C/C=C\CCCC(=O)O [11β-Prostaglandin E2] | 354840 | 5.67 |  | 
CCCCC/C=C\C=C\[C@H](CCCCCCCC(=O)O)OO [9(S)-HpODE] | 219240 | −5.03 |  | 
CCCCCCCCCCCCCCCC(=O)OC[C@H](COP(=O)([O-])OCC[N+](C)(C)C)OC(=O)CCCC(=O)O [PGPC] | 371440 | 6.98 |  | 
CCCCCC(O)C=CC1OC(=O)CC(O)C1CC=CCCCC(=O)O (stereo not drawn) [11-dehydro Thromboxane B2] | 349160 | 5.22 |  | 
C[C@]12C/C(=C/O)C(=O)C[C@@H]1CC[C@@H]1[C@@H]2CC[C@@]2(C)[C@H]1CC[C@]2(C)O [Oxymetholone] |  |  | 92000 | −1.20
C[C@]12CC[C@@H]3c4ccc(O)cc4CC[C@H]3[C@@H]1CCC2=O [Estrone] |  |  |  | 0.45
CCCCC/C=C\C/C=C\C/C=C\C=C\[C@@H]1CCCC(=O)O1 [5(S)-HETE lactone] | 288400 | 0.12 |  | 
CCCCC/C=C\C[C@@H](O)/C=C/C=C\CCC(=O)O [tetranor-12(R)-HETE] | 708640 | 31.37 |  | 
CCCCC/C=C\C/C=C\C/C=C\C=C\[C@@H](O)CCCC(=O)OC (racemic) [(±)5-HETE methyl ester] | 337600 | 3.78 |  | 

Molecule | HSD17B13 Enzymatic Activity Relative Light Units [1] [RLU] | HSD17B13 Enzymatic Activity Percent Estradiol Control [2] [%] | HSD17B13 Enzymatic Activity Relative Light Units (Steroid Library, 50 μM steroid) [RLU] | HSD17B13 Enzymatic Activity Percent Estradiol Control (Steroid Library, 50 μM steroid) [%]
CC(C)OC(=O)CCC/C=C\C[C@@H]1[C@@H](/C=C/[C@@H](O)COc2cccc(C(F)(F)F)c2)[C@H](O)C[C@@H]1O [Fluprostenol isopropyl ester] | 467040 | 14.54 |  | 
C[C@]12CCC(=O)C[C@@H]1CC[C@@H]1[C@@H]2C(=O)C[C@]2(C)C(=O)CC[C@@H]12 [5alpha-Androstane-3,11,17-trione] |  |  | 228280 | 1.18
CC/C=C\C/C=C\C=C\[C@@H](O)C/C=C\C/C=C\CCCC(=O)O [11(S)-HEPE] | 1525600 | 92.11 |  | 
O=c1cc(-c2ccc(O)cc2)oc2cc(O)cc(O)c12 [Apigenin] |  |  | 24440 | −2.38
Ptdlns-(3)-P1 (1,2-dipalmitoyl) (ammonium salt) | 15520 | −23.38 |  | 
CC/C=C\C[C@@H](/C=C/C=C\C/C=C\C/C=C\CCCC(=O)O)OO [15(S)-HpEPE] | 316200 | 2.18 |  | 
CCCCCC(O)/C=C/C=C\CCCCCCCC(=O)O (racemic) [(±)13-HODE] | 954080 | 49.62 |  | 
O=P([O-])(O)O[C@@H]1C(O)[C@H](OP(=O)([O-])O)[C@H](O)C(O)[C@H]1O.[Na+].[Na+] (stereo partly drawn) [D-myo-Inositol-1,5-diphosphate (sodium salt)] | 443840 | 8.97 |  | 
CC/C=C\C/C=C\C=C\[C@@H](O)CCCCCCCC(=O)O [9(S)-HOTrE] | 586800 | 22.31 |  | 
CCCCCC(=O)/C=C/[C@@H]1[C@H](C/C=C\CCCC(=O)O)[C@@H](O)C[C@H]1O [8-iso-15-keto Prostaglandin F2α] | 312360 | 2.31 |  | 
CC/C=C\C/C=C\C=C\[C@H](O)C/C=C\C/C=C\CCCC(=O)O [11(R)-HEPE] | 940920 | 48.64 |  | 
CC/C=C\C[C@H](O)/C=C/[C@@H]1[C@H](C/C=C\CCCC(=O)O)[C@@H](O)C[C@H]1O [8-iso Prostaglandin F3α] | 361040 | 6.16 |  | 
O=C(O)CCC/C=C\C[C@H]1C(=O)C[C@@H](O)[C@@H]1/C=C/[C@@H](O)CCCCCO [20-hydroxy Prostaglandin E2] | 348240 | 5.15 |  | 
C[C@]12CC[C@H](O)C[C@@H]1CC[C@@H]1[C@@H]2CC[C@]2(C)C(=O)CC[C@@H]12 [Epiandrosterone] |  |  | 185800 | 0.44
CCCCC/C=C\C[C@H]1O[C@H]1C/C=C\C/C=C\CCCC(=O)NCCO [11(12)-EET Ethanolamide] | 440800 | 8.74 |  | 
[2H]C([2H])(CC(=O)CC[C@H]1C(=O)C[C@H](O)[C@@H]1CCC(=O)O)C([2H])([2H])C([2H])([2H])C(=O)O [tetranor-PGDM-d6] | 375520 | 3.81 |  | 
CCCCC/C=C\C/C=C\C[C@H]1O[C@H]1C/C=C\CCCC(=O)NCCO [8(9)-EET Ethanolamide] | 446000 | 9.14 |  | 
Cholesteryl Linoleate Hydroperoxides | 256120 | −2.28 |  | 
C[C@@H](O)CCC[C@@H](O)/C=C/[C@H]1[C@H](O)CC(=O)[C@@H]1C/C=C\CCCC(=O)O [15(R),19(R)-hydroxy Prostaglandin E2] | 346000 | 4.97 |  | 
CCCCC/C=C\C=C\[C@H](O)CCCCCCCC(=O)O [9(R)-HODE] | 413280 | 9.40 |  | 
